The text below walks through data of US9242937B2, “Pharmaceutically active disubstituted pyridine derivatives” (Bayer Intellectual Property GmbH, priority 2011, dated 2016).

The subject of this assay is cellular CDK9 activity (RNA Polymerase II Ser2 phosphorylation) in HCT-116 cells. Kind of assay: RNA-Polymerase II Ser2 cellular phosphorylation assay. It is filed as cell-based. The note with it: Homo sapiens, 72 h, normalized with tubulin, read-out: RNA Polymerase II Ser2 Phosphorylation (activity range), IC50. As for the experimental part: HCT-116 cells (DSMZ, Braunschweig, Germany) were maintained in Mc Coy's cell culture medium+glutamine (PAN Biotech GmbH, Aidenbach, Germany) supplemented with 10% fetal calf serum (PAA Laboratories GmbH, Pasching, Austria) and grown at 37° C., 5% CO2. For the cellular phosphorylation assay, cells were seeded with 2×10^5 cells/well/1 ml in 24-well plates (Greiner Bio One, Frickenhausen, Germany; catalog #662160). The compounds of general formula (I) summarized in Table 6 were diluted from a 10 mM DMSO stock solution 1:10 in a total volume of 15 μL DMSO. After overnight incubation at 37° C./5% CO2, 1.5 μL of a compound diluted in DMSO was added to each sample well. Wells with cells and 0.15% DMSO in culture medium were used as positive controls, wells without cells and 0.15% DMSO in culture medium were used as negative controls. The cells were incubated with the compounds for 72 h at 37° C./5% CO2. […] Phosphorylation of RNA Polymerase II Ser2 and tubulin levels for normalization were analyzed afterwards with the Multi-Array technology (Meso Scale Discovery, Gaithersburg, Md., USA), a combination of antibody coupled electrochemiluminescence detection and patterned arrays. […] Finally, plates were washed three times with Tris Wash Buffer, 150 μl 2× Read Buffer (Meso Scale Discovery) were added per well and plates were analyzed immediately in a Sector Imager from Meso Scale Discovery. […]

For `COc1ccccc1-c1ccnc(Nc2cccc(S(N)(=O)=O)c2)c1` [Compound D1, 3-[(4-(2-Methoxyphenyl)pyridin-2-yl)amino]benzenesulfonamide], the half-maximal inhibitory concentration (IC50) is 1 to 10 µM.
